# In ChEMBL document CHEMBL4033618, “Covalently linked kanamycin - Ciprofloxacin hybrid antibiotics as a tool to fight bacterial resistance” (Bioorg Med Chem, 2017):
# Key:
# Assay type in all cases: functional
# Escherichia coli [1] = experiment: Antibacterial activity against aminoglycosides-susceptible Escherichia coli R477-100 by double microdilution method
# Escherichia coli [2] = experiment: Antibacterial activity against aminoglycosides-susceptible Escherichia coli 25922 by double microdilution method; settings: ATCC 25922
# Bacillus subtilis = experiment: Antibacterial activity against aminoglycosides-susceptible Bacillus subtilis by double microdilution method
# [3] = test system: Staphylococcus epidermidis; experiment: Antibacterial activity against aminoglycosides-susceptible Staphylococcus epidermidis by double microdilution method
# Escherichia coli [4] = experiment: Antibacterial activity against Escherichia coli BL21 by double microdilution method
# Escherichia coli [5] = experiment: Inhibition of protein translation in Escherichia coli S30 cell extract using circular DNA with pBESTluc after 60 mins; settings: Escherichia coli, 1 h; read-out: IC50
# Escherichia coli [6] = experiment: Ratio of MIC for aminoglycosides-resistant Escherichia coli BL21 harboring pET11d encode for APH(3')-2b resistance enzyme to MIC for Escherichia coli BL21
# Escherichia coli [7] = experiment: Antibacterial activity against kanamycin-resistant Escherichia coli AG100B by double microdilution method
# Escherichia coli [8] = experiment: Antibacterial activity against kanamycin-resistant Escherichia coli AG100A by double microdilution method
# Escherichia coli [9] = experiment: Antibacterial activity against aminoglycosides-resistant Escherichia coli BL21 harboring pSF815 encode for bifunctional AAC(6')/APH(2\") resistance enzyme by double microdilution method
# Escherichia coli [10] = experiment: Ratio of MIC for aminoglycosides-resistant Escherichia coli BL21 harboring pSF815 encode for bifunctional AAC(6')/APH(2\") resistance enzyme to MIC for Escherichia coli BL21
# Escherichia coli [11] = experiment: Antibacterial activity against aminoglycosides-resistant Escherichia coli BL21 harboring pET11d encode for APH(3')-2b resistance enzyme by double microdilution method
# Escherichia coli [12] = experiment: Antibacterial activity against aminoglycosides-resistant Escherichia coli BL21 harboring pETSACG1 encode for APH(3')-3a resistance enzyme by double microdilution method
# Escherichia coli [13] = experiment: Ratio of MIC for aminoglycosides-resistant Escherichia coli BL21 harboring pETSACG1 encode for APH(3')-3a resistance enzyme to MIC for Escherichia coli BL21
# Escherichia coli [14] = experiment: Antibacterial activity against Escherichia coli XL1 blue by double microdilution method
# Escherichia coli [15] = experiment: Antibacterial activity against Escherichia coli XL1 blue harboring pET9d encode for APH(3')-1a resistance enzyme by double microdilution method
# Escherichia coli [16] = experiment: Ratio of MIC for Escherichia coli XL1 blue harboring pET9d encode for APH(3')-1a resistance enzyme to MIC for Escherichia coli XL1 blue
Compound,MIC (Escherichia coli [1]) [µg/mL],MIC (Escherichia coli [2]) [µg/mL],MIC (Bacillus subtilis) [µg/mL],MIC [3] [µg/mL],MIC (Escherichia coli [4]) [µg/mL],IC50 (Escherichia coli [5]) [µM],Ratio (Escherichia coli [6]),MIC (Escherichia coli [7]) [µg/mL],MIC (Escherichia coli [8]) [µg/mL],MIC (Escherichia coli [9]) [µg/mL],Ratio (Escherichia coli [10]),MIC (Escherichia coli [11]) [µg/mL],MIC (Escherichia coli [12]) [µg/mL],Ratio (Escherichia coli [13]),MIC (Escherichia coli [14]) [µg/mL],MIC (Escherichia coli [15]) [µg/mL],Ratio (Escherichia coli [16])
NC[C@H]1O[C@H](O[C@H]2[C@H](O)[C@@H](O[C@H]3O[C@H](CO)[C@@H](O)[C@H](N)[C@H]3O)[C@H](NCc3cn(CCN4CCN(c5cc6c(cc5F)c(=O)c(C(=O)O)cn6C5CC5)CC4)nn3)C[C@@H]2N)[C@H](O)[C@@H](O)[C@@H]1O,6,3,1.5,6,0.2,8.14,,,,,,,,,,,
NC[C@H]1O[C@H](O[C@H]2[C@H](O)[C@@H](O[C@H]3O[C@H](CO)[C@@H](O)[C@H](N)[C@H]3O)[C@H](NC(=O)CCc3cn(Cc4ccc(CN5CCN(c6cc7c(cc6F)c(=O)c(C(=O)O)cn7C6CC6)CC5)cc4)nn3)C[C@@H]2N)[C@H](O)[C@@H](O)[C@@H]1O,36,24,6,18,0.8,,2,48,3,1.5,2,1.5,0.8,1,24,24,1
NC[C@H]1O[C@H](O[C@H]2[C@H](O)[C@@H](O[C@H]3O[C@H](CO)[C@@H](O)[C@H](N)[C@H]3O)[C@H](NC(=O)CCc3cn(CC(O)CN4CCN(c5cc6c(cc5F)c(=O)c(C(=O)O)cn6C5CC5)CC4)nn3)C[C@@H]2N)[C@H](O)[C@@H](O)[C@@H]1O (some centres not stated),12,6,9,36,0.2,,1,24,1.5,1.5,1,1.5,1.5,1,24,24,1
NC[C@H]1O[C@H](O[C@H]2[C@H](O)[C@@H](O[C@H]3O[C@H](CO)[C@@H](O)[C@H](N)[C@H]3O)[C@H](NCc3cn(Cc4cccc(CN5CCN(c6cc7c(cc6F)c(=O)c(C(=O)O)cn7C6CC6)CC5)c4)nn3)C[C@@H]2N)[C@H](O)[C@@H](O)[C@@H]1O,36,24,12,18,1.5,,1,36,1.5,0.8,1,0.8,0.8,1,12,24,2
NC[C@H]1O[C@H](O[C@H]2[C@H](O)[C@@H](O[C@H]3O[C@H](CO)[C@@H](O)[C@H](N)[C@H]3O)[C@H](NC(=O)CCc3cn(CCOCCN4CCN(c5cc6c(cc5F)c(=O)c(C(=O)O)cn6C5CC5)CC4)nn3)C[C@@H]2N)[C@H](O)[C@@H](O)[C@@H]1O,12,6,9,24,0.8,,1,24,0.75,0.8,1,0.8,0.8,1,12,12,1
NC[C@H]1O[C@H](O[C@H]2[C@H](O)[C@@H](O[C@H]3O[C@H](CO)[C@@H](O)[C@H](N)[C@H]3O)[C@H](NC(=O)CCc3cn(Cc4cccc(CN5CCN(c6cc7c(cc6F)c(=O)c(C(=O)O)cn7C6CC6)CC5)c4)nn3)C[C@@H]2N)[C@H](O)[C@@H](O)[C@@H]1O,24,18,9,18,0.8,,2,48,1.5,1.5,2,1.5,1.5,2,12,24,2
NC[C@H]1O[C@H](O[C@H]2[C@H](O)[C@@H](O[C@H]3O[C@H](CO)[C@@H](O)[C@H](N)[C@H]3O)[C@H](NC(=O)CCCc3cn(CC(O)CN4CCN(c5cc6c(cc5F)c(=O)c(C(=O)O)cn6C5CC5)CC4)nn3)C[C@@H]2N)[C@H](O)[C@@H](O)[C@@H]1O (some centres not stated),12,6,1.5,24,,,,,,,,,,,,,
NC[C@H]1O[C@H](O[C@H]2[C@H](O)[C@@H](O[C@H]3O[C@H](CO)[C@@H](O)[C@H](N)[C@H]3O)[C@H](NCc3cn(CCCCCCN4CCN(c5cc6c(cc5F)c(=O)c(C(=O)O)cn6C5CC5)CC4)nn3)C[C@@H]2N)[C@H](O)[C@@H](O)[C@@H]1O,12,12,6,24,0.8,6.46,1,24,1.5,0.8,1,0.8,0.8,1,12,12,1
NC[C@H]1O[C@H](O[C@H]2[C@H](O)[C@@H](O[C@H]3O[C@H](CO)[C@@H](O)[C@H](N)[C@H]3O)[C@H](NC(=O)CCCc3cn(Cc4ccc(CN5CCN(c6cc7c(cc6F)c(=O)c(C(=O)O)cn7C6CC6)CC5)cc4)nn3)C[C@@H]2N)[C@H](O)[C@@H](O)[C@@H]1O,6,3,3,6,0.8,2.19,1,24,0.75,0.8,1,0.8,0.8,1,6,,
